These are literature values, as cited in patent US20200253884A1, “NANOBIOLOGIC COMPOSITIONS FOR PROMOTING TRAINED IMMUNITY” (ICAHN SCHOOL OF MEDICINE AT MOUNT SINAI, priority 2017, published 2020).

In one data set the test system is multiple cancers. The conditions noted are these: in vivo.
In data set [1] the test system is diffuse large B-cell lymphoma (DLBCL). The conditions noted are these: preliminary results.

For Medi 4736: anti-PD-L1 antibody, in the data set with multiple cancers, the clinical activity entry is reported as “durable clinical activity” and the safety profile entry was “acceptable safety profile”.

“CT-011: humanized IgG1 monoclonal antibody against PD-1”: the “subjects progression-free at the end of the follow-up period” value in data set [1] (control group 47%) was 70%. The subjects alive in data set [1] (control group 62%) is listed as 82%.
